Assay results published in publication PMC4289246, “Dose-dependent effects of lesogaberan on reflux measures in patients with refractory gastroesophageal reflux disease: a randomized, placebo-controlled study” (BMC Gastroenterology, 2014).
Where two headings read alike, the source gives them in different places.

Columns and labels:
[1] = tested on: patients with GERD who had a partial response to PPI treatment; test: Safety and tolerability assessments; type: in vivo, human
Procedure: Sitting and orthostatic blood pressure and pulse rate were also assessed pre-dose and 2 h after the first dose of lesogaberan or placebo at each treatment visit. Patients ate meals (standardized primarily according to fat content and pH) approximately 1 h after each dose of study medication or placebo, and at the same time points during each study period. Patients were monitored for adverse events from the first dose administration until the follow-up visit 5–10 days after receiving the last dose. The active treatment period for each dose was defined as the time from the first dose of study drug to 24 h after the second dose of study drug in each treatment period. Patients also underwent active questioning to determine whether they experienced syncope, or feeling faint, lightheadedness, dizziness or paraesthesia before study treatment started and after removing the impedance–pH catheter. A 12-lead digital electrocardiogram (ECG) was scheduled at the screening visit, before and 2 h after the first dose of lesogaberan or placebo at each treatment visit, and at the follow-up visit. Blood and urine samples were taken at the pre-entry visit (full laboratory screen), and before and 24 h after the first dose of lesogaberan or placebo at each treatment visit (reduced laboratory screen) to assess clinical chemistry and haematology, and to screen for indications of drug abuse.
The efficacy evaluation of the different doses of lesogaberan was based on data from all patients not affected by major protocol deviations and violations relevant to the analysis of a specific variable. The safety analysis set comprised all patients who received at least one dose of lesogaberan or placebo, and for whom post-dose data were available.

[2] = Plasma pharmacokinetics of lesogaberan during 24-h dosing; type: in vivo, human; conditions: for AUC(0-t) / Cmax / Tmax: human, oral, plasma; for AUC(0-t): modified-release capsules, read-out: AUC (0–24 h), geometric mean
Procedure: Blood samples were taken 1 h before the first administration of each dose, and at regular intervals during the 24-h period after the first administration of each dose, to assess the concentration of lesogaberan in plasma over time. […]

[3] = parameters: method as in PMID 21410297; conditions: approximately; cited from earlier work
[4] = 2 h after first dose, 30–240 mg

With `NC[C@@H](F)C[PH](=O)O` [lesogaberan, (R)-(3-amino-2-fluoropropyl) phosphinic acid] the “adverse events during active dosing” value ([1]; 90 mg twice in 24 h) was “one patient reported headache and nausea”, the ECG readings ([1]; 12-lead ECG before and 2 h after first dose) was “No clinically significant changes in ECG readings” and the “adverse events resulting in discontinuation” value ([1]; 30–240 mg twice in 24 h) was “no adverse events resulted in discontinuation”. For the same compound, the “serious adverse events during active dosing periods” value ([1]; 30–240 mg twice in 24 h, safety analysis set n = 27) was “No serious adverse events were reported”, the “blood pressure compared with placebo” value [1, 4] was “slight decreases in blood pressure” and the “pulse rate compared with placebo” value [1, 4] was “Slight increases in pulse rate”. For the same compound, the “fraction of peak concentration (Cmax) remaining at the end of the wash-out period” value ([2]; 7–28-day washout, estimated from half-life) was ≤ 0.01%, the AUC(0-t) ([2]; 30 mg twice in 24 h, patients) was 5.25 µM·h and the AUC(0-t) ([2]; 90 mg twice in 24 h, patients) was 17.3 µM·h. For the same compound, the AUC(0-t) ([2]; 120 mg twice in 24 h, patients) was 22.2 µM·h, the AUC(0-t) ([2]; 240 mg twice in 24 h, patients) was 46.9 µM·h and the Cmax ([2]; 30 mg, evening dose, patients, read-out: C max evening, geometric mean) was 420 nM. The Tmax ([2]; 30 mg, evening dose, patients, read-out: t max evening, geometric mean) was 2.2 h, the Cmax ([2]; 30 mg, morning dose, patients, read-out: C max morning, geometric mean) was 350 nM and the Tmax ([2]; 30 mg, morning dose, patients, read-out: t max morning, geometric mean) was 1.7 h. For the same compound, the Cmax ([2]; 90 mg, evening dose, patients, read-out: C max evening, geometric mean) was 1680 nM, the Tmax ([2]; 90 mg, evening dose, patients, read-out: t max evening, geometric mean) was 1.9 h and the Cmax ([2]; 90 mg, morning dose, patients, read-out: C max morning, geometric mean) was 1300 nM. For the same compound, the Tmax ([2]; 90 mg, morning dose, patients, read-out: t max morning, geometric mean) was 1.7 h, the Cmax ([2]; 120 mg, evening dose, patients, read-out: C max evening, geometric mean) was 2210 nM and the Tmax ([2]; 120 mg, evening dose, patients, read-out: t max evening, geometric mean) was 1.9 h. It also gave a Cmax ([2]; 120 mg, morning dose, patients, read-out: C max morning, geometric mean) of 1480 nM, a Tmax ([2]; 120 mg, morning dose, patients, read-out: t max morning, geometric mean) of 1.9 h and a Tmax ([2]; 240 mg, all four doses (30, 90, 120, 240 mg), morning and evening, read-out: geometric mean tmax) of 1.7 to 2.6 h. The Cmax ([2]; 240 mg, evening dose, patients, read-out: C max evening, geometric mean) was 4180 nM, the Tmax ([2]; 240 mg, evening dose, patients, read-out: t max evening, geometric mean) was 2.6 h and the Cmax ([2]; 240 mg, morning dose, patients, read-out: C max morning, geometric mean) was 3310 nM. For the same compound, the Tmax ([2]; 240 mg, morning dose, patients, read-out: t max morning, geometric mean) was 1.7 h and the pharmacological half-life [3] was 11–13 h.
